Consider one molecule from patent US6476009B1, “Method for control and treatment of acquired immunodeficiency syndrome (AIDS)” (priority 1985, dated 2002).

The test system of one data set is cytomegalovirus (CMV). As to the kind of experiment: Clinical effect of infusion in patients with severe herpesvirus infections. The format is in vivo. Particulars: intravenous constant infusion 1-4 weeks, severe herpesvirus infections mainly CMV.
Data set [1] relates to labial and genital herpes. Briefly: Clinical evaluation of topical formulation against labial and genital herpes. The format is in vivo.
The subject of the next data set is Uninfected H9 cells. As to the kind of experiment: Growth inhibition of uninfected H9 cells. It is filed as cell-based. As to conditions: Homo sapiens, 750 μM foscarnet.
Another data set has as its system variety of cell types. Briefly: Cell growth inhibition in a variety of cell types. It is filed as cell-based.
The nature of data set [2]: Steady-state serum level in patients on constant intravenous infusion. Particulars: constant intravenous infusion for 1-4 weeks, most cases.
Description: These patients were given foscarnet intravenously by constant infusion for 1-4 weeks and, at steady state, serum levels of foscarnet reached in most cases were 300-450 μM (100-150 μg/ml).
For the next data set, the system named is HTLV-III. As to the kind of experiment: Replication of HTLV-III in H9 cells (RT activity readout). The format is cell-based. As to conditions: Human immunodeficiency virus 1, 144 h. As for the experimental part:
HTLV-III Infection of H9 Cells. H9 cells constitute a human cell line that can be chronically infected with HTLV-III virus. (Science 1984; 224: 497-500). H9 cells were treated with polybrene (2 μg/ml) for 30 min. at 37° C., washed free of polybrene and infected with 2×10^8 HTLV-III virus particles per 4×10^5 H9 cells. […] The cultures were analyzed for HTLV-III reverse transcriptase activity as described above.
The effect of foscarnet on the replication of HTLV-III in H9 cells was determined as a function of both foscarnet concentration and time of incubation.

The target in data set [3] is HTLV-III reverse transcriptase (Human immunodeficiency virus type 1 group M subtype B, UniProt P03366). As to the kind of experiment: Purified HTLV-III reverse transcriptase assay. It is filed as biochemical. As for the experimental part:
Source of HTLV-III Reverse Transcriptase and Assay Conditions. HTLV-III reverse transcriptase used in these studies was purified by sequential chromatography on DEAE, cellulose, phosphocellulose and hydroxyapatite. The purified anzyme was stored in 50 mM Tris-HC1 (pH 7.5), 1 mM dithiothreitol (DTT), 0.01% Triton X-100 and 20% glycerol. Reverse transcriptase assays were carried out in a reaction mixture (50 μl)containing 50 mM Tris-HC1 (pH 7.5), 5 mM DTT, 100mM potassium chloride, 0.01% Triton X-100 or NP40, 10 μg/ml (dT)15.(A)n as template primer and/^3H/deoxythymidine triphosphate (/^3H/-dTTP). The reaction mixture was incubated for 1 hour at 37°, and the reaction was stopped by the addition of 50 μg of yeast tRNA and 2 ml of 10% solution of trichloroacetic acid (TCA) containing 1 mM sodium pyrophosphate. The samples were filtered on millipore filters (0.45 μm), washed first with 5% TCA solution (5 times) and then with 2 ml of 70% ethanol. The filters were dried under a heat lamp, scintillation fluid was added and the radioactivity counted in a β-scintillation counter.
The effect of foscarnet on purified HTLV-III reverse transcriptase (RT) was assayed as a function of drug concentration.

The structures appear in SMILES notation. Values joined by “and” are separate entries in the source; they are usually repeats but may differ in a detail not shown here. Identical values can stand only once.

Usually inhibition stands for how much of the control response was suppressed. High values mean a strong effect, low ones a weak effect. As to `O=C(O)P(=O)(O)O` [foscarnet, trisodium phosphonoformate hexahydrate], the “clinical effect in treated patients” value in the data set with cytomegalovirus (CMV) was “clear indications of a beneficial effect”. In data set [1], the “clinical activity and tolerability” value was “active and well tolerated”. The molecule also came in with an inhibition at 750 µM with Uninfected H9 cells of less than 50%. Besides, the “cell growth after removal of the drug” value in the data set with variety of cell types (stationary cells treated with 10 mM foscarnet) is recorded as “normal cell growth can be seen”. Besides, in the data set with variety of cell types (variety of cell types), the “reversibility of cell growth inhibition” value was “reversible”. The IC50 in the data set on variety of cell types (variety of cell types, read-out: concentration inhibiting cell growth by 50%) was roughly 1000 µM; in data set [3], 0.1 to 2 µM. Besides, in data set [2], the “steady state serum level” value was 300-450 μM and 100-150 μg/ml. In the data set on HTLV-III (50 μM foscarnet, 6 days of incubation), this molecule returned an inhibition at 50 µM of 50%. The molecule also showed an inhibition at 300 µM with HTLV-III (300 μM foscarnet, six days of incubation) greater than 95%. In addition, the “mode of inhibition of reverse transcriptase” value in data set [3] (with respect to substrate and template) is “noncompetitive with respect to substrate and uncompetitive with respect to template”.
